Results taken from patent US7589123B2, “Chemical compounds” (Phytopharm PLC, priority 2006, dated 2009).

What was measured:
[1] = system: histamine-induced contractions in guinea pig ileum; experiment: Inhibition of histamine-induced contractions in guinea pig ileum (Assay 3); details: Cavia porcellus, histamine 1.7 μM, read-out: Inhibition of histamine-induced contraction (%)
In short: (§1)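 Ileal strips from male Duncan Hartley guinea pigs were held at 1 g tension in 32° C oxygenated Krebs (pH 7.4) with isotonic transducers. After control contractions to 5-HT (2.6 μM) or histamine (1.7 μM), compound at 3 and 30 μM was added, its own effect noted, and agonist re-applied.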

[2] = system: 5-HT-induced contractions in guinea pig ileum; experiment: Inhibition of 5-HT-induced contractions in guinea pig ileum (Assay 3); details: Cavia porcellus, 5-HT 2.6 μM, read-out: Inhibition of 5-HT-induced contraction (%)
In short: as §1

[3] = system: α-smooth muscle actin (α-SMA) mRNA; experiment: Anti-remodelling activity in human lung fibroblasts (HFL1): TGFβ-induced α-SMA mRNA (Assay 4); type: cell-based; details: Homo sapiens, HFL1 cells, TGFβ 10 ng/ml, 24 h, read-out: Inhibition of α-SMA mRNA synthesis (%)
In short: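 Real-time RT-PCR of α-SMA mRNA, GAPDH as reference, measured after 24 h exposure of low-serum-primed HFL1 cells to 10 ng/ml TGFβ with test compounds (3 and 30 μM) in 10% FBS medium. Readout is inhibition of TGFβ-driven α-SMA mRNA overexpression.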

[4] = system: IL-1α-induced PGE2 release; experiment: IL-1α-induced PGE2 release in human diploid lung fibroblasts (WI-38) (Assay 5); type: cell-based; details: Homo sapiens, WI-38 cells, IL-1α 1 nM, overnight
In short: (§2)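 Cell viability was read by Alamar Blue fluorescence (530/590 nm) after 4 h at 37 °C, following an overnight 37 °C incubation of human lung fibroblasts with 1 nM IL-1α and compound (3 or 30 μM) in 10% FBS MEM, pH 7.3. Supernatant PGE2 was measured by radioimmunoassay to derive percent inhibition.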

[5] = system: WI-38 cells; experiment: Viability of WI-38 cells, Alamar Blue (Assay 5); type: cell-based, human
In short: as §2

[6] = molecular target: T1, 5-lipoxygenase (Homo sapiens, UniProt P09917); experiment: 5-lipoxygenase activity (LTB4) in human peripheral blood mononuclear leukocytes (Assay 6); type: cell-based; details: human PBMLs, A23187 30 μM, read-out: Inhibition of 5-LO (%)
T1 construct: endogenous in cells; host or cells: human peripheral blood mononuclear leukocytes (PBMLs)
T1 sequence (P09917 1-674): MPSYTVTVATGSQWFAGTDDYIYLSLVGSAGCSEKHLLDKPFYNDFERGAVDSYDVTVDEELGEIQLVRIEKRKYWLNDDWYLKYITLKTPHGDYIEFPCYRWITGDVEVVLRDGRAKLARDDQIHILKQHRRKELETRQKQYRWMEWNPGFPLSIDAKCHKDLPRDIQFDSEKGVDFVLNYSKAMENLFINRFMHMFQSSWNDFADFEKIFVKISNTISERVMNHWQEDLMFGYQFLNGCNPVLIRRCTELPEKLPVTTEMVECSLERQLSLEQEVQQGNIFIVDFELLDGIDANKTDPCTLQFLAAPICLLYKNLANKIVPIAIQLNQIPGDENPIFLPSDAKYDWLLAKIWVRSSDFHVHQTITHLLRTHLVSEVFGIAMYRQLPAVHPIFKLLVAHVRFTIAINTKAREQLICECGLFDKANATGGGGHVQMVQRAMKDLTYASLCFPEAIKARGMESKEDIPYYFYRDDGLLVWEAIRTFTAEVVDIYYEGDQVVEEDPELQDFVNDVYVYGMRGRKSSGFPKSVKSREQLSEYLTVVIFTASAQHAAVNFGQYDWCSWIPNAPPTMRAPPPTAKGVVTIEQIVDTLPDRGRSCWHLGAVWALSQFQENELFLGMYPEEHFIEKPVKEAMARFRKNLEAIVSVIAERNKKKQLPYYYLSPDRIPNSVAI
In short: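 LTB4 in supernatant quantified by EIA after 15 min at 37° C. in HBSS, pH 7.4, where Ficoll-isolated human PBMLs (5×10^6) received ionophore A23187 (30 μM) and test compound (3 and 30 μM) or 0.1% DMSO vehicle.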

[7] = molecular target: TRPV1 receptor (Rattus norvegicus, UniProt O35433); experiment: TRPV1 modulation in DRG neurones: CGRP release in absence and presence of capsaicin (Assay 2); type: cell-based; set-up: The culture used for this experiment contained sensory neurones, Schwann cells and fibroblasts; endogenous in cells; host or cells: primary rat DRG sensory neurone culture (with Schwann cells and fibroblasts); details: 20 min; for inhibition at 3 µM: 3 μM with capsaicin 1 μM; for inhibition at 3 µM / inhibition at 30 µM: −ve: inhibition, +ve: potentiation of capsaicin response, read-out: Effect of test compounds on capsaicin (1 μM)-induced CGRP release (%); for inhibition at 30 µM: 30 μM with capsaicin 1 μM; for Emax at 3 µM: test compound alone 3 μM; for Emax at 3 µM / Emax at 30 µM: rat DRG sensory neurones, read-out: CGRP release (% of capsaicin (1 μM) response); for Emax at 30 µM: test compound alone 30 μM
Sequence of TRPV1 receptor (O35433 whole entry): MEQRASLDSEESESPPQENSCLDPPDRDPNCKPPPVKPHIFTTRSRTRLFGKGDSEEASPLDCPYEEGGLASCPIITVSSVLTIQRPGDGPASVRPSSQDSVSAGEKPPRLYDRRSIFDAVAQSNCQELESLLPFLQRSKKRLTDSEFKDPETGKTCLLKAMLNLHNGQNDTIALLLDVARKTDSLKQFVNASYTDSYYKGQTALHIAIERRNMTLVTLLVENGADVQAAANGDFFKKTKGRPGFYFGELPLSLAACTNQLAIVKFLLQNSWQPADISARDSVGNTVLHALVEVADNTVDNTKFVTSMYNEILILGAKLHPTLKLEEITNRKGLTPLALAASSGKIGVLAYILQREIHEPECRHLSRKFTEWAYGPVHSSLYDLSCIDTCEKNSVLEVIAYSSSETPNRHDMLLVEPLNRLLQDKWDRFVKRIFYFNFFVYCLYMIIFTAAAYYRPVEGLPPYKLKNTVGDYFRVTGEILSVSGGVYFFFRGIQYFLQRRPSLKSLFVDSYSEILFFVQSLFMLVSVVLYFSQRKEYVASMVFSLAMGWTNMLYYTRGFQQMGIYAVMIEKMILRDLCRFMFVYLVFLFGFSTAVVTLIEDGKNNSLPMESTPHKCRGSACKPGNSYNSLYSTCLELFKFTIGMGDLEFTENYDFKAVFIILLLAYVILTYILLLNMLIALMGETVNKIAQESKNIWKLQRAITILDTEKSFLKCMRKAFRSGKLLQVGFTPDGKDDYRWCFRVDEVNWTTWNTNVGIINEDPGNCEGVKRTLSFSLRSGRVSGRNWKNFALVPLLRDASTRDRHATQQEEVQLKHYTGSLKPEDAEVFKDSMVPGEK

Row | Compound | inhibition at 3 µM [6] [%] | inhibition at 30 µM [6] [%] | inhibition at 3 µM [7] [%] | inhibition at 30 µM [7] [%] | Emax at 3 µM [7] [%] | Emax at 30 µM [7] [%] | inhibition at 3 µM [1] [%] | inhibition at 30 µM [1] [%] | inhibition at 3 µM [2] [%] | inhibition at 30 µM [2] [%] | inhibition at 3 µM [3] [%] | inhibition at 30 µM [3] [%] | inhibition at 3 µM [4] [%] | inhibition at 30 µM [4] [%] | Decrease in cell viability (%) ([5]; 3 μM) | Decrease in cell viability (%) ([5]; 30 μM)
1 | COc1cc(CCC(=O)CC(=O)C(c2ccccc2)c2ccccc2)ccc1O [Compound 30, 6-(4-Hydroxy-3-methoxyphenyl)-1,1-diphenyl-hexane-2,4-dione] | 50 | 99 | 49 | -150 | 70 | 122 | 8 | 89 | 6 |  | 84 | 100 | 46 | 99 | −10 | 29
2 | COc1cc(CCC(=O)C(C)C(=O)C(C)(C)C)ccc1O (centres unmarked) [Compound 4, 1-(4-Hydroxy-3-methoxyphenyl)-4,6,6-trimethyl-heptane-3,5-dione] | 15 | 73 | -58 | -24 | 36 | 63 | 7 | 14 | 0 | 10 | -3 | 17 | 49 | 96 | −3 | 10
3 | COc1cc(CCC(=O)CC(=O)c2ccc(C#N)cc2)ccc1O [Compound 82, 1-(4-Cyanophenyl)-5-(4-hydroxy-3-methoxyphenyl)pentane-1,3-dione] | 48 | 97 | 4 | 27 | 53 | 58 | 12 | 20 | 13 | 83 | -3 | 39 | 78 | 102 | −4 | 6
4 | COc1cc(CCC(=O)C(C)C(=O)C2(C)CC2)ccc1O (centres unmarked) [Compound 7, 5-(4-Hydroxy-3-methoxylphenyl)-2-methyl-1-(1-methylcyclopropyl)-pentane-1,3-dione] | 24 | 63 | 19 | 41 | 35 | 76 | 4 | 12 | 0 | 26 | -8 | 9 | 47 | 94 | −4 | 4
5 | COc1cc(CCC(=O)CC(=O)c2ccc(Cl)cc2)ccc1O [Compound 21, 1-(4-Chlorophenyl)-5-(4-hydroxy-3-methoxyphenyl)pentane-1,3-dione] | 68 | 98 | 6 | -56 | 50 | 150 | 9 | 68 | 9 | 49 | 6 | 54 | 88 | 99 | 3 | 11

Now from value to compound, other results behind:

Row | inhibition at 3 µM [6] [%] | inhibition at 30 µM [6] [%] | inhibition at 3 µM [7] [%] | inhibition at 30 µM [7] [%] | Emax at 3 µM [7] [%] | Emax at 30 µM [7] [%] | Compound | inhibition at 3 µM [1] [%] | inhibition at 30 µM [1] [%] | inhibition at 3 µM [2] [%] | inhibition at 30 µM [2] [%] | inhibition at 3 µM [3] [%] | inhibition at 30 µM [3] [%] | inhibition at 3 µM [4] [%] | inhibition at 30 µM [4] [%] | Decrease in cell viability (%) ([5]; 3 μM) | Decrease in cell viability (%) ([5]; 30 μM)
6 | 60 | 98 | 15 | 6 | 54 | 75 | COc1cc(CCC(=O)CC(=O)c2ccccc2Cl)ccc1O [Compound 74, 1-(2-Chlorophenyl)-5-(4-hydroxy-3-methoxyphenyl)pentane-1,3-dione] | 1 | 41 | 10 | 89 | -4 | 53 | 99 | 101 | 1 | 16
7 | 51 | 95 | -98 | -22 | 55 | 183 | COc1ccc(C(=O)C(C)C(=O)CCc2ccc(O)c(OC)c2)cc1 (centres unmarked) [Compound 17, 5-(4-Hydroxy-3-methoxyphenyl)-1-(4-methoxyphenyl)-2-methyl-pentane-1,3-dione] | 3 | 29 | 6 | 42 | -1 | 31 | 58 | 98 | −1 | 4
8 | 58 | 98 | 29 | 4 | 46 | 96 | COc1cc(CCC(=O)CC(=O)c2ccc(F)cc2)ccc1O [Compound 20, 1-(4-Fluorophenyl)-5-(4-hydroxy-3-methoxyphenyl)-pentane-1,3-dione] | 0 | 22 | 2 | 74 | -8 | 11 | 87 | 99 | 3 | 10
9 | 77 | 98 | 32 | 26 | 54 | 74 | COc1cc(CCC(=O)CC(=O)c2ccccc2C)ccc1O [Compound 84, 5-(4-Hydroxy-3-methoxyphenyl)-1-o-tolylpentane-1,3-dione] | 19 | 66 | 22 | 100 | 6 | 65 | 101 | 102 | 3 | 12
